The target in assay [1] is T1, Trastuzumab (TMab) (Homo sapiens, UniProt P01857, D239E/L241M).
T1 construct: Genentech (HERCEPTIN)
Kind of assay: Photoconjugation (UV 365 nm) of peptide to Trastuzumab, DAR by LC-MS. Here is the method: (§1) Example 2: Antibody conjugation. Conjugation reactions for photocrosslinking peptides were performed open and uncovered in V-bottom, clear, polystyrene 96-well plates (ThermoFisher, product #2605) with a final reaction volume of 50 μL. Unused wells were filled with 150 μL of deionized water. Optimized reactions were performed in 20 mM histidine acetate buffer, pH=5.5, with a final concentration of 48 μM antibody, 480 μM photo-crosslinking peptide, 480 μM 5-hydroxyindole ([…], Sigma-Aldrich), with 11% (v/v) DMSO. […] The DAR was assessed by LC-MS analysis of Fc/2 or heavy chain fragments generated by IdeS or DTT treatments of Trastuzumab, respectively.

For assay [2], the target named is T1, Trastuzumab (TMab). Kind of assay: SPR binding of peptides to immobilized Trastuzumab. Particulars: for Kd: TMab, FIG. 3C; for reduced binding affinity (Kd fold decreased) compared to the Fc-III peptide: relative to Fc-III. As to the method: Example 2: SPR binding experiments. Kinetics of peptide binding to Trastuzumab were measured by surface plasmon resonance (SPR) on a Biacore 3000 instrument (GE Healthcare) using a previously established method. (Gong, Y.; et al., Development of the Double Cyclic Peptide Ligand for Antibody Purification and Protein Detection. Bioconjugate chemistry 2016). An amine coupling kit (GE Healthcare) was used to immobilize Trastuzumab to the surface of a CM5 Sensor Chip (GE Healthcare). All injections were double-referenced with real-time reference channel subtraction and buffer blank injections. Data were analyzed using the BiaEvaluation software (version 4.1, GE Healthcare).
(Surface plasmon resonance follows binding to a sensor surface in real time, without labels.)

Assay [3] concerns the target T1, Trastuzumab (TMab). Kind of assay: Photoconjugation (UV 365 nm) of peptide to Trastuzumab, DAR by LC-MS. Particulars: PBS, micro-centrifuge tubes on ice, hand-held 365 nm lamp, one hour.
In another assay the target is human IgG4 antibody (A) (Homo sapiens, UniProt P01861). Kind of assay: Photoconjugation of peptide to human IgG4 antibody A, DAR. As to the method:
as §1

For the next assay, the system named is Rituximab (human IgG1). Kind of assay: Photoconjugation of peptide to Rituximab, DAR.
A further assay concerns the target mouse IgG1 antibody (D) (Mus musculus, UniProt P01868). Kind of assay: Photoconjugation of peptide to mouse IgG1 antibody D, DAR. Particulars: Mouse IgG1 (no Met-252). As to the method:
as §1

The target in assay [4] is human IgG4 "YTE" mutant (B) (Homo sapiens, UniProt P01861, M132Y/S134T/T136E). Kind of assay: Photoconjugation of peptide to human IgG4 YTE mutant antibody B, DAR. Particulars: Human IgG4 YTE mutant (no Met-252). Here is the method:
as §1

A further assay concerns the target rabbit IgG (C) (Oryctolagus cuniculus, UniProt P01870). Kind of assay: Photoconjugation of peptide to rabbit IgG antibody C, DAR. Here is the method:
as §1

Another assay concerns the target human IgG. Particulars: previously reported, Gong et al. 2016; cited from earlier work.
The mark [5] stands for this setting: 96-well plate directly under 365 nm lamp, room temperature, 4.5 hours.

Where “and” joins values, the source holds several entries; their conditions need not be identical. Identical values can stand only once.

This is an account of results in patent US20220047711A1, “PHOTOCROSSLINKING PEPTIDES FOR SITE SPECIFIC CONJUGATION TO FC-CONTAINING PROTEINS” (Genentech, Inc., priority 2018, published 2022).

Regarding `CC(=O)N[C@@H](CC(=O)O)C(=O)N[C@H]1CSSC[C@@H](C(=O)N[C@H](C(N)=O)[C@@H](C)O)NC(=O)[C@H](Cc2c[nH]c3ccccc23)NC(=O)[C@H](C(C)C)NC(=O)[C@H](CC(C)C)NC(=O)[C@H](CCC(=O)O)NC(=O)CNC(=O)[C@H](Cc2ccc(C(=O)c3ccccc3)cc2)NC(=O)[C@H](Cc2c[nH]cn2)NC(=O)[C@H](Cc2c[nH]c3ccccc23)NC(=O)[C@H](C)NC1=O` [BPA4, Ac-DCAWHBGELVWCT-NH2], the DAR at Trastuzumab (TMab) [1] (setting [5]) is given as 1.2. In addition, at Trastuzumab (TMab) [2], the Kd is around 30 µM and the “reduced binding affinity (Kd fold decreased) compared to the Fc-III peptide” value is given as “greater than 1700 fold”.

Regarding `CC(=O)N[C@@H](CC(=O)O)C(=O)N[C@H]1CSSC[C@@H](C(=O)N[C@H](C(N)=O)[C@@H](C)O)NC(=O)[C@H](Cc2c[nH]c3ccccc23)NC(=O)[C@H](Cc2ccc(C(=O)c3ccccc3)cc2)NC(=O)[C@H](CC(C)C)NC(=O)[C@H](CCC(=O)O)NC(=O)CNC(=O)[C@H](CC(C)C)NC(=O)[C@H](Cc2c[nH]cn2)NC(=O)[C@H](Cc2c[nH]c3ccccc23)NC(=O)[C@H](C)NC1=O` [BPA7, Ac-DCAWHLGELBWCT-NH2], the DAR was around 1.7 at Trastuzumab (TMab) [1] (setting [5]); 1.5 on Trastuzumab (TMab) [1] (Row B: 267 μM BPA7, PBS, on ice (~4° C.), 4 hours); 1.8 on Trastuzumab (TMab) [1] (Row C: 267 μM BPA7, histidine-acetate pH 5.5, on ice, 4 hours); 1.4 on Trastuzumab (TMab) [1] (Row D: 267 μM BPA7, PBS, 267 μM 5-hydroxyindole, on ice, 4 hours); 1.9 on Trastuzumab (TMab) [1] (Row E: 480 μM BPA7 (10-fold over antibody), histidine-acetate pH 5.5, 5-hydroxyindole, 6 hours, on ice); 1.8 on Trastuzumab (TMab) [1] (irradiation chamber, Row A: 267 μM BPA7, PBS, room temperature, 4 hours). The “DAR (photoconjugation efficiency)” value on Trastuzumab (TMab) [1] (FIG. 3C, peptide series comparison) is given as 1.9. For the same compound, the “DAR reached upon photoconjugation to BPA7” value at Trastuzumab (TMab) [1] (Trastuzumab, Human IgG1) was 2.0; at human IgG4 antibody (A) it was 2.0; in the assay with Rituximab (human IgG1), 2.0; on mouse IgG1 antibody (D), 0; in [4] it was 0.0; on rabbit IgG (C) it was 1.2. Moreover, the “drug-to-antibody ratio (DAR)” value at Trastuzumab (TMab) [3] is around 0.04. In addition, the Kd at Trastuzumab (TMab) [2] was ~70 µM and 70 µM. For the same compound, at Trastuzumab (TMab) [2] (relative to BPA9), the “bound to TMab less tightly than BPA9” value was around 150 fold. The “reduced binding affinity (Kd fold decreased) compared to the Fc-III peptide” value at Trastuzumab (TMab) [2] is on record as “greater than 4000 fold”.

On to `CC(=O)N[C@@H](CC(=O)O)C(=O)N[C@H]1CSSC[C@@H](C(=O)N[C@H](C(N)=O)[C@@H](C)O)NC(=O)[C@H](Cc2c[nH]c3ccccc23)NC(=O)[C@H](C(C)C)NC(=O)[C@H](CC(C)C)NC(=O)[C@H](CCC(=O)O)NC(=O)CNC(=O)[C@H](CC(C)C)NC(=O)[C@H](Cc2c[nH]cn2)NC(=O)[C@H](Cc2c[nH]c3ccccc23)NC(=O)[C@H](C)NC1=O` [Fc-III], for which, on human IgG, the Kd is 0.07 µM.

For “Ac-DCAWBLGELVWCT-NH2 (DCAWXLGELVWCT; Ac, NH2; BPA non-natural residue; /note=“N-term Ac”; MOD_RES (5)..(5) p-benzoyl-L-phenylalanine; /note=“C-term NH2”) [BPA3, B = BPA]”, the DAR with Trastuzumab (TMab) [1] (setting [5]) was found to be 0.2.

As a reminder, the Kd is the constant that tells how readily two partners part at equilibrium.
